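1) Cells in 96-well plates. 2) Compound, 48 h, 5 concentrations. 3) Linear interpolation between surrounding doses. 4) Unreached endpoint = highest concentration. Here, GI50 denotes the concentration required for 50% inhibition of growth. Definition used: TGI = concentration required for complete inhibition of growth.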
What was measured:
Assay in all cases: NCI anticancer screen, dose series, 48 h
786-0 renal = system: 786-0 renal
A498 renal = system: A498 renal
A549 NSCLC = system: A549 NSCLC
ACHN renal = system: ACHN renal
BT-549 breast = system: BT-549 breast
CAKI-1 renal = system: CAKI-1 renal
CCRF-CEM leukemia = system: CCRF-CEM leukemia
COLO 205 colon = system: COLO 205 colon
DU-145 prostate = system: DU-145 prostate
EKVX NSCLC = system: EKVX NSCLC
HCC-2998 colon = system: HCC-2998 colon
HCT-116 colon = system: HCT-116 colon
HCT-15 colon = system: HCT-15 colon
HL-60(TB) leukemia = system: HL-60(TB) leukemia
HOP-62 NSCLC = system: HOP-62 NSCLC
HOP-92 NSCLC = system: HOP-92 NSCLC
HS 578T breast = system: HS 578T breast
HT29 colon = system: HT29 colon
IGROV1 ovarian = system: IGROV1 ovarian
K-562 leukemia = system: K-562 leukemia
KM12 colon = system: KM12 colon
LOX IMVI melanoma = system: LOX IMVI melanoma
MALME-3M melanoma = system: MALME-3M melanoma
MCF7 breast = system: MCF7 breast
MDA-MB-231 breast = system: MDA-MB-231 breast
MDA-MB-435 = system: MDA-MB-435
MOLT-4 leukemia = system: MOLT-4 leukemia
NCI-H226 lung = system: NCI-H226 lung
NCI-H23 lung = system: NCI-H23 lung
NCI-H460 lung = system: NCI-H460 lung
NCI-H522 lung = system: NCI-H522 lung
NCI/ADR-RES ovarian = system: NCI/ADR-RES ovarian
OVCAR-3 ovarian = system: OVCAR-3 ovarian
OVCAR-4 ovarian = system: OVCAR-4 ovarian
OVCAR-5 ovarian = system: OVCAR-5 ovarian
OVCAR-8 ovarian = system: OVCAR-8 ovarian
PC-3 prostate = system: PC-3 prostate
RPMI-8226 leukemia = system: RPMI-8226 leukemia
RXF 393 renal = system: RXF 393 renal
SF-268 CNS = system: SF-268 CNS
SF-295 CNS = system: SF-295 CNS
SF-539 CNS = system: SF-539 CNS
SK-MEL-2 melanoma = system: SK-MEL-2 melanoma
SK-MEL-28 melanoma = system: SK-MEL-28 melanoma
SK-MEL-5 melanoma = system: SK-MEL-5 melanoma
SK-OV-3 ovarian = system: SK-OV-3 ovarian
SN12C renal = system: SN12C renal
SNB-19 CNS = system: SNB-19 CNS
SNB-75 CNS = system: SNB-75 CNS
SR leukemia = system: SR leukemia
SW-620 colon = system: SW-620 colon
T-47D breast = system: T-47D breast
TK-10 renal = system: TK-10 renal
U251 CNS = system: U251 CNS
UACC-257 melanoma = system: UACC-257 melanoma
UACC-62 melanoma = system: UACC-62 melanoma
UO-31 renal = system: UO-31 renal

## CCN(CC)S(=O)(=O)c1ccc(-c2nc(C(Cl)Cl)nc3cc(-c4ccc(F)cc4)nn23)cc1
786-0 renal
  GI50: 5.37 µM
  TGI: > 100 µM
A498 renal
  GI50: 1.33 µM
  TGI: 4.7 µM
A549 NSCLC
  GI50: 2.52 µM
  TGI: 10.1 µM
ACHN renal
  GI50: 1.16 µM
  TGI: 3.57 µM
BT-549 breast
  GI50: 18.5 µM
  TGI: > 100 µM
CAKI-1 renal
  GI50: 2.38 µM
  TGI: 13.3 µM
CCRF-CEM leukemia
  GI50: > 100 µM
  TGI: > 100 µM
COLO 205 colon
  GI50: 2.02 µM
  TGI: 6.16 µM
DU-145 prostate
  GI50: 1.34 µM
  TGI: 2.98 µM
EKVX NSCLC
  GI50: 2.28 µM
  TGI: 6.57 µM
HCC-2998 colon
  GI50: 1.89 µM
  TGI: 4.15 µM
HCT-116 colon
  GI50: 1.73 µM
  TGI: > 100 µM
HCT-15 colon
  GI50: 1.32 µM
  TGI: > 100 µM
HL-60(TB) leukemia
  GI50: 1.58 µM
  TGI: 6.65 µM
HOP-62 NSCLC
  GI50: 3.21 µM
  TGI: > 100 µM
HOP-92 NSCLC
  GI50: 2 µM
  TGI: 5.47 µM
HS 578T breast
  GI50: 3.56 µM
  TGI: 93.2 µM
HT29 colon
  GI50: 1.55 µM
  TGI: 4.77 µM
IGROV1 ovarian
  GI50: 3.38 µM
  TGI: > 100 µM
K-562 leukemia
  GI50: 1.83 µM
  TGI: > 100 µM
KM12 colon
  GI50: 1.89 µM
  TGI: 9.43 µM
LOX IMVI melanoma
  GI50: 6.37 µM
  TGI: > 100 µM
MALME-3M melanoma
  GI50: > 100 µM
  TGI: > 100 µM
MCF7 breast
  GI50: 2.66 µM
  TGI: > 100 µM
MDA-MB-231 breast
  GI50: 2.01 µM
  TGI: 7.27 µM
MDA-MB-435
  GI50: 3.02 µM
  TGI: > 100 µM
MOLT-4 leukemia
  GI50: 8.19 µM
  TGI: > 100 µM
NCI-H226 lung
  GI50: 3.77 µM
  TGI: > 100 µM
NCI-H23 lung
  GI50: 2.49 µM
  TGI: 20.6 µM
NCI-H460 lung
  GI50: 0.923 µM
  TGI: 3.07 µM
NCI-H522 lung
  GI50: > 100 µM
  TGI: > 100 µM
NCI/ADR-RES ovarian
  GI50: 2.24 µM
  TGI: > 100 µM
OVCAR-3 ovarian
  GI50: 1.15 µM
  TGI: 2.87 µM
OVCAR-4 ovarian
  GI50: 3.71 µM
  TGI: > 100 µM
OVCAR-5 ovarian
  GI50: 3.04 µM
  TGI: > 100 µM
OVCAR-8 ovarian
  GI50: 3.94 µM
  TGI: > 100 µM
PC-3 prostate
  GI50: 2.61 µM
  TGI: 18.6 µM
RPMI-8226 leukemia
  GI50: 0.733 µM
  TGI: 3.79 µM
RXF 393 renal
  GI50: 1.54 µM
  TGI: 3.41 µM
SF-268 CNS
  GI50: 5.14 µM
  TGI: > 100 µM
SF-295 CNS
  GI50: 2.29 µM
  TGI: 12.8 µM
SF-539 CNS
  GI50: 2.24 µM
  TGI: 8.88 µM
SK-MEL-2 melanoma
  GI50: > 100 µM
  TGI: > 100 µM
SK-MEL-28 melanoma
  GI50: 2.73 µM
  TGI: 10.8 µM
SK-MEL-5 melanoma
  GI50: > 100 µM
  TGI: > 100 µM
SK-OV-3 ovarian
  GI50: 4.09 µM
  TGI: > 100 µM
SN12C renal
  GI50: 15.7 µM
  TGI: > 100 µM
SNB-19 CNS
  GI50: 3.7 µM
  TGI: > 100 µM
SNB-75 CNS
  GI50: 11.7 µM
  TGI: > 100 µM
SR leukemia
  GI50: 2.69 µM
  TGI: > 100 µM
SW-620 colon
  GI50: 1.41 µM
  TGI: > 100 µM
T-47D breast
  GI50: 2.94 µM
  TGI: > 100 µM
TK-10 renal
  GI50: 2.99 µM
  TGI: 8.72 µM
U251 CNS
  GI50: 2.21 µM
  TGI: 14.4 µM
UACC-257 melanoma
  GI50: 5.51 µM
  TGI: > 100 µM
UACC-62 melanoma
  GI50: 4.03 µM
  TGI: > 100 µM
UO-31 renal
  GI50: 2.27 µM
  TGI: 8.99 µM

— PubChem BioAssay (NCI)
